Reference: EP4700023A1, “GLP-1R RECEPTOR AGONIST COMPOUND SALT AND CRYSTAL FORM THEREOF, PREPARATION METHOD THEREFOR AND USE THEREOF” (Chengdu Vincentage Pharma Co., Ltd., priority 2023, dated 2024)
Structures can show the parent of a compound that is named as a salt.

Columns and labels:
[1] = Pharmacokinetic evaluation in rats; assay type: in vivo; details: Rat PK, 10 mg/kg
Protocol: Rats were used as test animals, and the plasma drug concentrations at different time points after gavage administration of the test sample were measured. The pharmacokinetic behavior of the compound of the present disclosure in rats was studied to evaluate its metabolic characteristics. For each experimental group, 3 rats with similar body weights were selected and orally administered a single dose of 10 mg/kg. […] Pharmacokinetic parameter calculations were performed using metabolic kinetic data analysis software WinNonlin 7.0 by non-compartmental analysis (NCA) based on plasma concentration data.
A test sample with a final preparation concentration (based on the content of the compound of formula I) of 1.0 mg/mL was prepared for oral administration, using a 0.5% CMC Na aqueous solution as the preparation solvent.
Administration: After overnight fasting (12 hours), rats were administered by gavage at a dose of 10 mg/kg.
The blood samples were placed in heparinized sample tubes, and centrifuged at 4°C and 3500 rpm for 10 minutes to separate plasma, which was then stored at -20°C. Food was provided 2 hours after administration.
Determination of the content of the compound to be tested in rat plasma after gavage administration: After thawing plasma samples at room temperature, 300 µL of internal standard (terfenadine 200 ng/mL, acetonitrile) was added to each sample. The mixtures were vortexed for 1 min and then centrifuged at 4°C and 15400 rpm for 10 min. The supernatant was diluted 20-fold with 80% acetonitrile-water and then injected for LC/MS/MS analysis.

[2] = Hygroscopicity test method (DVS); assay type: physicochemical; design: Sorption / Desorption / Hysteresis: unit not given here; details: for Hygroscopicity (80% RH) / Hygroscopicity (80% RH), description in words: 25°C, DVS; for Desorption / Sorption / Hysteresis: onset temperature 24.9°C
Protocol: Hygroscopicity test method (DVS): The hygroscopicity of the sample was measured using SMS Intrinsic Plus. The sample was weighed into a sample pan, equilibrated at 25°C until dm/dt was less than 0.002%, and then measured in time mode. The humidity was adjusted from 60%-90%-0%-90%-0% RH, with increments of 10% RH per step, and each humidity level was maintained for 1 hour.

[3] = Grindability test (mortar, XRPD detection); assay type: physicochemical; details: for Grindability (mortar 5 min), solid form: XRPD
Protocol: Grindability test: An appropriate amount of the crystal compound to be tested was placed in a mortar and ground for 2 min and 5 min, followed by XRPD detection.

[4] = Purity test after storage in an oven at set temperature (stability); assay type: physicochemical; details: 80°C, 1 day
[5] = as above; assay type: physicochemical; details: HPLC; for Purity, Onset: Onset (before storage)
Protocol: Purity test: The sample to be tested was dissolved in a methanol solution, and the sample purity was measured by HPLC.

[6] = Compressibility test (tableting, XRPD detection); assay type: physicochemical; details: compressed into tablets
[7] = Tableting and grinding test (XRPD, FIG. 21 to 25); assay type: physicochemical
Protocol: Grindability test: An appropriate amount of the crystal compound to be tested was placed in a mortar and ground for 2 min and 5 min, followed by XRPD detection. […]

[8] = Cycle 2, target humidity 0.0 % P/P0
[9] = Cycle 2, target humidity 10.0 % P/P0
[10] = Cycle 2, target humidity 20.0 % P/P0
[11] = Cycle 2, target humidity 30.0 % P/P0
[12] = Cycle 2, target humidity 40.0 % P/P0
[13] = Cycle 2, target humidity 50.0 % P/P0
[14] = Cycle 2, target humidity 60.0 % P/P0
[15] = Cycle 2, target humidity 70.0 % P/P0
[16] = Cycle 2, target humidity 80.0 % P/P0
[17] = Cycle 2, target humidity 90.0 % P/P0
[18] = Target humidity 0.0 % P/P0, first cycle
[19] = Target humidity 10.0 % P/P0, first cycle
[20] = Target humidity 20.0 % P/P0, first cycle
[21] = Target humidity 30.0 % P/P0, first cycle
[22] = Target humidity 40.0 % P/P0, first cycle
[23] = Target humidity 50.0 % P/P0, first cycle
[24] = Target humidity 60.0 % P/P0, first cycle
[25] = Target humidity 70.0 % P/P0, first cycle
[26] = Target humidity 80.0 % P/P0, first cycle
[27] = Target humidity 90.0 % P/P0, first cycle
[28] = after tableting, after grinding for 5 minutes and for 2 minutes, FIG. 21 to 23

O=C(O)c1ccc2nc(CN3CCC(c4ccccc4OCc4ccc(Cl)cc4F)CC3)n(C[C@@H]3CCO3)c2c1 [Crystal form A of the monohydrate of the 2-amino-2-(hydroxymethyl)-1,3-propanediol salt of (S)-2-((4-(2-((4-chloro-2-fluorobenzyl)oxy)phenyl)piperidin-1-yl)methyl)-1-(oxetan-2-aminomethyl)-1H-benzo[d]imidazole-6-carboxylate]
AUC(0-inf) ([1]; in vivo, oral (PO)): 772 ng·h/mL
AUC(0-t) ([1]; in vivo, oral (PO)): 765 ng·h/mL
Cmax ([1]; in vivo, oral (PO)): 410 ng/mL
Tmax ([1]; in vivo, oral (PO)): 0.41 h
half-life ([1]; in vivo, oral (PO)): 1.59 h

O=C(O)c1ccc2nc(CN3CCC(c4ccccc4OCc4ccc(Cl)cc4F)CC3)n(C[C@@H]3CCO3)c2c1 [Crystal form A of the monohydrate of the compound of formula] [Crystal form A of the monohydrate of the 2-amino-2-(hydroxymethyl)-1,3-propanediol salt of (S)-2-((4-(2-((4-chloro-2-fluorobenzyl)oxy)phenyl)piperidin-1-yl)methyl)-1-(oxetan-2-aminomethyl)-1H-benzo[d]imidazole-6-carboxylate]
Hygroscopicity (80% RH) [2]: 0.34%
Hygroscopicity (80% RH), description in words [2]: Slightly hygroscopic
Desorption [2, 8]: 0.0112
Sorption [2, 8]: 0.0000
Desorption [2, 9]: 0.1186
Hysteresis [2, 9]: 0.0161
Sorption [2, 9]: 0.1025
Desorption [2, 10]: 0.1641
Hysteresis [2, 10]: 0.0175
Sorption [2, 10]: 0.1466
Desorption [2, 11]: 0.1996
Hysteresis [2, 11]: 0.0182
Sorption [2, 11]: 0.1814
Desorption [2, 12]: 0.2286
Hysteresis [2, 12]: 0.0145
Sorption [2, 12]: 0.2141
Desorption [2, 13]: 0.2611
Hysteresis [2, 13]: 0.0167
Sorption [2, 13]: 0.2443
Desorption [2, 14]: 0.2923
Hysteresis [2, 14]: 0.0177
Sorption [2, 14]: 0.2746
Desorption [2, 15]: 0.3219
Hysteresis [2, 15]: 0.0176
Sorption [2, 15]: 0.3043
Desorption [2, 16]: 0.3457
Hysteresis [2, 16]: 0.0099
Sorption [2, 16]: 0.3458
Desorption [2, 17]: 0.3759
Sorption [2, 17]: 0.3759
Desorption [2, 18]: 0.0000
Desorption [2, 19]: 0.1080
Desorption [2, 20]: 0.1542
Desorption [2, 21]: 0.1894
Desorption [2, 22]: 0.2213
Desorption [2, 23]: 0.2553
Desorption [2, 24]: 0.2989
Hysteresis [2, 24]: 0.0002
Sorption [2, 24]: 0.2896
Desorption [2, 25]: 0.3213
Hysteresis [2, 25]: 0.0053
Sorption [2, 25]: 0.3160
Desorption [2, 26]: 0.3490
Hysteresis [2, 26]: 0.0064
Sorption [2, 26]: 0.3426
Desorption [2, 27]: 0.3817
Sorption [2, 27]: 0.3817
Grindability (mortar 5 min), purity change [3]: purity unchanged
Grindability (mortar 5 min), solid form [3]: Crystalline form unchanged
Solid form after 80°C (1 day) [4]: retained the crystal form
Purity, 2 to 8°C (6 months) ([5]; 2 to 8°C, 6 months): 99.90%
Purity, Onset [5]: 99.95%
Purity, 60°C (7 day) ([5]; oven, 60°C, 7 day): 99.90%
Purity, 80°C (1 day) ([5]; oven): 99.35%
Compressibility (20 Mp) [6]: Crystal form unchanged
Oral absorption ([1]; compared with the free acid): significantly better oral absorption than the compound of formula I (free acid)
Crystallinity after tableting and grinding ([7]; first and second tableting at 20 MPa, tableting at 40 MPa, grinding for 1, 3 and 5 minutes, FIG. 24, 25): basically stable

O=C(O)c1ccc2nc(CN3CCC(c4ccccc4OCc4ccc(Cl)cc4F)CC3)n(C[C@@H]3CCO3)c2c1 [Crystal form I of the compound of formula I] [(S)-2-((4-(2-((4-Chloro-2-fluorobenzyl)oxy)phenyl)piperidin-1-yl)methyl)-1-(oxetan-2-aminomethyl)-1H-benzo[d]imidazole-6-carboxylic acid]
Hygroscopicity (80% RH) [2]: 2.5%
Hygroscopicity (80% RH), description in words [2]: highly hygroscopic
Desorption [2, 18]: 0.013
Sorption [2, 18]: 0.019
Desorption [2, 19]: 0.807
Hysteresis [2, 19]: 0.042
Sorption [2, 19]: 0.766
Desorption [2, 20]: 1.307
Hysteresis [2, 20]: 0.035
Sorption [2, 20]: 1.271
Desorption [2, 21]: 1.588
Hysteresis [2, 21]: 0.047
Sorption [2, 21]: 1.541
Desorption [2, 22]: 1.816
Hysteresis [2, 22]: 0.062
Sorption [2, 22]: 1.754
Desorption [2, 23]: 2.072
Hysteresis [2, 23]: 0.112
Sorption [2, 23]: 1.960
Desorption [2, 24]: 2.286
Hysteresis [2, 24]: 0.125
Sorption [2, 24]: 2.161
Desorption [2, 25]: 2.441
Hysteresis [2, 25]: 0.097
Sorption [2, 25]: 2.344
Desorption [2, 26]: 2.576
Hysteresis [2, 26]: 0.065
Sorption [2, 26]: 2.511
Desorption [2, 27]: 2.685
Sorption [2, 27]: 2.685
Grindability (mortar 5 min), purity [3]: 99.25%
Grindability (mortar 5 min), solid form [3]: transformed to amorphous
Purity, Onset [5]: 99.27%
Purity, 80°C (1 day) ([5]; oven): 91.81%
Compressibility (20 Mp) [6]: Crystal form I, significant reduction in crystallinity
Crystallinity after tableting and grinding [7, 28]: decreasing crystallinity in different degrees

O=C(O)c1ccc2nc(CN3CCC(c4ccccc4OCc4ccc(Cl)cc4F)CC3)n(C[C@@H]3CCO3)c2c1 [Crystal form II of the compound of formula I] [(S)-2-((4-(2-((4-Chloro-2-fluorobenzyl)oxy)phenyl)piperidin-1-yl)methyl)-1-(oxetan-2-aminomethyl)-1H-benzo[d]imidazole-6-carboxylic acid]
Grindability (mortar 5 min), purity [3]: 99.7%
Grindability (mortar 5 min), solid form [3]: transformed to amorphous
Solid form after 80°C (1 day) [4]: transformed to amorphous
Purity, Onset [5]: 99.73%
Purity, 80°C (1 day) ([5]; oven): 80.43%
Compressibility (20 Mp) [6]: Crystal form II, significant reduction in crystallinity
Crystallinity after tableting and grinding [7, 28]: decreasing crystallinity in different degrees

O=C(O)c1ccc2nc(CN3CCC(c4ccccc4OCc4ccc(Cl)cc4F)CC3)n(C[C@@H]3CCO3)c2c1 [Crystal form III of the compound of formula I] [(S)-2-((4-(2-((4-Chloro-2-fluorobenzyl)oxy)phenyl)piperidin-1-yl)methyl)-1-(oxetan-2-aminomethyl)-1H-benzo[d]imidazole-6-carboxylic acid]
Grindability (mortar 5 min), purity [3]: 98.65%
Grindability (mortar 5 min), solid form [3]: transformed to amorphous
Solid form after 80°C (1 day) [4]: transformed to amorphous
Purity, Onset [5]: 99.25%
Purity, 80°C (1 day) ([5]; oven): 83.43%
Compressibility (20 Mp) [6]: Crystal form III, no significant reduction in crystallinity
Crystallinity after tableting and grinding [7, 28]: decreasing crystallinity in different degrees

O=C([O-])c1ccc2nc(CN3CCC(c4ccccc4OCc4ccc(Cl)cc4F)CC3)n(C[C@@H]3CCO3)c2c1.[Na+] [Sodium salt of the compound of formula I, Sodium salt of (S)-2-((4-(2-((4-chloro-2-fluorobenzyl)oxy)phenyl)piperidin-1-yl)methyl)-1-(oxetan-2-aminomethyl)-1H-benzo[d]imidazole-6-carboxylate]
Hygroscopicity (80% RH), description in words [2]: Highly hygroscopic, deliquescent
